Test results published in US6737383B1, “Herbicidal oxadiazolidines” (priority 1999, dated 2004).

Tests used:
[1] = test system: velvetleaf; assay: Test B pre/postemergence velvetleaf; type: in vivo, Abutilon theophrasti
Summary of the method: (§1)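 Response is a visual 0-to-10 score relative to untreated plants, where 0 means no effect and 10 means complete control, taken twelve to sixteen days after application. Treatments went onto soil at planting and onto foliage of 1- to 4-leaf plants, using a surfactant-containing non-phytotoxic solvent.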

[2] = test system: giant foxtail; assay: Test B pre/postemergence giant foxtail; type: in vivo, Setaria faberii
Summary of the method: as §1

[3] = test system: wild oat; assay: Test B pre/postemergence wild oat; type: in vivo, Avena fatua
Summary of the method: as §1

[4] = test system: corn; assay: Test B pre/postemergence corn; type: in vivo, Zea mays
Summary of the method: as §1

[5] = test system: bamyardgrass; assay: Test B flood test barnyardgrass; type: in vivo, Echinochloa crus-galli
Summary of the method: (§2)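 Read-out is a visual response score from 0 (no effect) to 10 (complete control), assigned by comparison with untreated controls. Treatment was applied at the 2-leaf stage, and plants stayed in the greenhouse for twelve to sixteen days before scoring.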

[6] = test system: smallflower flatsedge; assay: Test B flood test smallflower flatsedge; type: in vivo, Cyperus difformis
Summary of the method: as §2

[7] = test system: morningglory; assay: Test B pre/postemergence morningglory; type: in vivo, Ipomoea hederacea
Summary of the method: as §1

[8] = test system: blackgrass; assay: Test B pre/postemergence blackgrass; type: in vivo, Alopecurus myosuroides
Summary of the method: as §1

[9] = test system: crabgrass; assay: Test B pre/postemergence crabgrass; type: in vivo, Digitaria sanguinalis
Summary of the method: as §1

[10] = test system: wheat; assay: Test B pre/postemergence wheat; type: in vivo, Triticum aestivum
Summary of the method: as §1

[11] = test system: rape; assay: Test B pre/postemergence rape; type: in vivo, Brassica napus
Summary of the method: as §1

[12] = test system: surinam grass; assay: Test B pre/postemergence surinam grass; type: in vivo, Brachiaria decumbens
Summary of the method: as §1

[13] = test system: bedstraw; assay: Test B pre/postemergence bedstraw; type: in vivo, Galium aparine
Summary of the method: as §1

[14] = test system: cocklebur; assay: Test B pre/postemergence cocklebur; type: in vivo, Xanthium strumarium; settings: for Cocklebur plant response rating: Postemergence; for Plant response rating, Cocklebur: Preemergence
Summary of the method: as §1

[15] = test system: soybean; assay: Test B pre/postemergence soybean; type: in vivo, Glycine max
Summary of the method: as §1

[16] = test system: duck salad; assay: Test B flood test duck salad; type: in vivo, Heteranthera limosa
Summary of the method: as §2

[17] = Postemergence, Rate 62 g/ha, scale 0 to 10, 0 is no effect, 10 is complete control
[18] = Postemergence, Rate 250 g/ha, scale 0 to 10, 0 no effect, 10 complete control
[19] = Preemergence, Rate 62 g/ha, scale 0 to 10, 0 is no effect, 10 is complete control
[20] = Preemergence, Rate 125 g/ha, scale 0 to 10 (0 no effect, 10 complete control)
[21] = Preemergence, Rate 250 g/ha, scale of 0 to 10 where 0 is no effect and 10 is complete control
[22] = Preemergence, Rate 500 g/ha, scale 0 (no effect) to 10 (complete control)
[23] = Rate 125 g/ha, Postemergence, scale 0 to 10, 0 no effect, 10 complete control
[24] = Rate 500 g/ha, Postemergence, 0 to 10 scale (0 no effect, 10 complete control)
[25] = Rate 125 g/ha, Postemergence section (flood test species), scale 0 to 10, 0 no effect, 10 complete control
[26] = Rate 250 g/ha, headed Pre-emergence (flood test species), scale 0 to 10 (0 no effect, 10 complete control)
[27] = Rate 500 g/ha, Postemergence section of Table B, 0 to 10 scale (0 no effect, 10 complete control)
[28] = Rate 500 g/ha, headed Pre-emergence (flood test species), scale 0 to 10 (0 no effect, 10 complete control)
[29] = Rate 1000 g/ha, Pre-emergence (as headed), scale 0 to 10
[30] = flood test, listed under Postemergence, Rate 250 g/ha, scale 0 to 10, 0 no effect, 10 complete control
[31] = Rate 2000 g/ha, Pre-emergence (as headed), scale 0 to 10
[32] = Rate 62 g/ha, scale 0 to 10, 0 is no effect, 10 is complete control

`Cc1ccccc1-n1c(=O)on(C(=O)N(c2ccccc2)C(C)C)c1=O` [Compound 36] was tested, and the “Velvetleaf plant response rating” value [1, 17] was 0, the “Velvetleaf plant response rating” value [1, 18] was 0 and the “Plant response rating, Velvetleaf” value [1, 19] was 0. The “Plant response rating, Velvetleaf” value [1, 20] was 0, the “Plant response rating, Velvetleaf” value [1, 21] was 0 and the “Velvetleaf plant response rating” value [1, 22] was 0. The “Velvetleaf plant response rating” value [1, 23] was 0, the “Giant foxtail plant response rating” value [2, 17] was 0 and the “Giant foxtail plant response rating” value [2, 18] was 3. For the same molecule, the “Plant response rating, Giant foxtail” value [2, 19] was 10, the “Plant response rating, Giant foxtail” value [2, 20] was 10 and the “Plant response rating, Giant foxtail” value [2, 21] was 10. The “Giant foxtail plant response rating” value [2, 22] was 10, the “Giant foxtail plant response rating” value [2, 23] was 3 and the “Giant foxtail plant response rating” value [2, 24] was 3. The “Wild oats plant response rating” value [3, 17] was 0, the “Wild oats plant response rating” value [3, 18] was 0 and the “Plant response rating, Wild oats” value [3, 20] was 2. For the same molecule, the “Plant response rating, Wild oats” value [3, 21] was 6, the “Wild oats plant response rating” value [3, 22] was 7 and the “Wild oats plant response rating” value [3, 23] was 0. The “Corn plant response rating” value [4, 17] was 0, the “Corn plant response rating” value [4, 18] was 0 and the “Plant response rating, Corn” value [4, 19] was 0. For the same molecule, the “Plant response rating, Corn” value [4, 20] was 0, the “Plant response rating, Corn” value [4, 21] was 0 and the “Corn plant response rating” value [4, 22] was 0. The “Corn plant response rating” value [4, 23] was 0, the “Corn plant response rating” value [4, 24] was 0 and the “Barnyardgrass plant response rating” value [5, 17] was 0. The “Barnyardgrass plant response rating” value [5, 25] was 0, the “Barnyardgrass plant response rating” value [5, 26] was 0 and the “Barnyardgrass plant response rating” value [5, 27] was 5. For the same molecule, the “Plant response rating, Barnyardgrass” value [5, 28] was 0, the “Barnyardgrass plant response rating” value [5, 29] was 0 and the “Barnyardgrass plant response rating” value ([5]; Rate 2000 g/ha, Pre-emergence (as headed), scale 0 to 10, 0 no effect, 10 complete control) was 0. For the same molecule, the “Barnyardgrass plant response rating” value [5, 30] was 2, the “S. Flatsedge plant response rating” value [6, 17] was 0 and the “S. Flatsedge plant response rating” value ([6]; Pre-emergence, Rate 1000 g/ha, scale 0 to 10 (0 no effect, 10 complete control)) was 0. The “S. Flatsedge plant response rating” value [6, 25] was 0, the “S. Flatsedge plant response rating” value [6, 26] was 0 and the “Plant response rating, S. Flatsedge” value [6, 28] was 0. For the same molecule, the “S. Flatsedge plant response rating” value [6, 31] was 0, the “S. Flatsedge plant response rating” value [6, 30] was 0 and the “Morningglory plant response rating” value [7, 17] was 4. For the same molecule, the “Morningglory plant response rating” value [7, 18] was 9, the “Plant response rating, Morningglory” value [7, 19] was 0 and the “Plant response rating, Morningglory” value [7, 20] was 0. For the same molecule, the “Plant response rating, Morningglory” value [7, 21] was 0, the “Morningglory plant response rating” value [7, 22] was 0 and the “Morningglory plant response rating” value [7, 23] was 9. The “Morningglory plant response rating” value [7, 24] was 9, the “Blackgrass plant response rating” value [8, 17] was 0 and the “Blackgrass plant response rating” value [8, 18] was 4. The “Plant response rating, Blackgrass” value [8, 19] was 4, the “Plant response rating, Blackgrass” value [8, 20] was 5 and the “Plant response rating, Blackgrass” value [8, 21] was 6. The “Blackgrass plant response rating” value [8, 22] was 7, the “Blackgrass plant response rating” value [8, 23] was 3 and the “Blackgrass plant response rating” value [8, 24] was 6. For the same molecule, the “Crabgrass plant response rating” value [9, 17] was 3, the “Crabgrass plant response rating” value [9, 18] was 3 and the “Plant response rating, Crabgrass” value [9, 19] was 8. The “Plant response rating, Crabgrass” value [9, 20] was 9, the “Plant response rating, Crabgrass” value [9, 21] was 9 and the “Crabgrass plant response rating” value [9, 22] was 10. For the same molecule, the “Crabgrass plant response rating” value [9, 23] was 3, the “Crabgrass plant response rating” value [9, 24] was 8 and the “Wheat plant response rating” value [10, 17] was 0. The “Wheat plant response rating” value [10, 18] was 0, the “Plant response rating, Wheat” value [10, 19] was 0 and the “Plant response rating, Wheat” value [10, 20] was 0. For the same molecule, the “Plant response rating, Wheat” value [10, 21] was 0, the “Wheat plant response rating” value [10, 22] was 0 and the “Wheat plant response rating” value [10, 23] was 0. For the same molecule, the “Rape plant response rating” value [11, 17] was 0, the “Rape plant response rating” value [11, 18] was 0 and the “Plant response rating, Rape” value [11, 19] was 0. The “Plant response rating, Rape” value [11, 20] was 0, the “Plant response rating, Rape” value [11, 21] was 0 and the “Rape plant response rating” value [11, 22] was 3. For the same molecule, the “Rape plant response rating” value [11, 23] was 0, the “Rape plant response rating” value [11, 24] was 0 and the “B. signalgrass plant response rating” value [12, 17] was 0. The “B. signalgrass plant response rating” value [12, 18] was 0, the “Plant response rating, B. signalgrass” value [12, 19] was 5 and the “Plant response rating, B. signalgrass” value [12, 20] was 8. For the same molecule, the “Plant response rating, B. signalgrass” value [12, 21] was 8, the “B. signalgrass plant response rating” value [12, 22] was 8 and the “B. signalgrass plant response rating” value [12, 23] was 0. For the same molecule, the “B. signalgrass plant response rating” value [12, 24] was 4, the “Bedstraw plant response rating” value [13, 17] was 0 and the “Plant response rating, Bedstraw” value [13, 19] was 0. The “Plant response rating, Bedstraw” value [13, 20] was 0, the “Bedstraw plant response rating” value [13, 22] was 0 and the “Cocklebur plant response rating” value [14, 32] was 0. For the same molecule, the “Cocklebur plant response rating” value ([14]; Rate 250 g/ha, scale 0 to 10, 0 no effect, 10 complete control) was 0, the “Plant response rating, Cocklebur” value [14, 32] was 0 and the “Plant response rating, Cocklebur” value ([14]; Rate 125 g/ha, scale 0 to 10 (0 no effect, 10 complete control)) was 0. For the same molecule, the “Plant response rating, Cocklebur” value ([14]; Rate 250 g/ha, scale of 0 to 10 where 0 is no effect and 10 is complete control) was 0, the “Cocklebur plant response rating” value ([14]; Rate 125 g/ha, scale 0 to 10, 0 no effect, 10 complete control) was 0 and the “Cocklebur plant response rating” value ([14]; Rate 500 g/ha, 0 to 10 scale (0 no effect, 10 complete control)) was 4. The “Soybean plant response rating” value [15, 17] was 5, the “Soybean plant response rating” value [15, 18] was 5 and the “Plant response rating, Soybean” value [15, 19] was 0. For the same molecule, the “Plant response rating, Soybean” value [15, 20] was 0, the “Plant response rating, Soybean” value [15, 21] was 0 and the “Soybean plant response rating” value [15, 22] was 0. For the same molecule, the “Soybean plant response rating” value [15, 23] was 5, the “Ducksalad plant response rating” value [16, 17] was 0 and the “Ducksalad plant response rating” value [16, 25] was 0. For the same molecule, the “Ducksalad plant response rating” value [16, 26] was 0, the “Ducksalad plant response rating” value [16, 27] was 0 and the “Plant response rating, Ducksalad” value [16, 28] was 0. For the same molecule, the “Ducksalad plant response rating” value [16, 29] was 0, the “Ducksalad plant response rating” value [16, 31] was 0 and the “Ducksalad plant response rating” value [16, 30] was 0.
